Measured values from US12240854B2, “TRAF 6 inhibitors” (Helmholtz Zentrum München - Deutsches Forschungszentrum für …, priority 2018, dated 2025).
“Also recorded” adds a separate entry of the source.

Assays:
[1] = tested on: U2932 (ABC DLBCL-MYD88 wt); experiment: Cell viability in DLBCL, U2932; type: cell-based; details: U2932, 30 μM, 9 days
Procedure: To determine the effects of C25-140 on MYD88-dependent ABC-DLBCL, we chose the HBL1 (ABC-DLBCL-MYD88 L265P), U2932 (ABC DLBCL-MYD88 wt) and BJAB (GCB DLBCL) cell lines. 1×10^6 cells of each cell line was seeded in 5 ml and treated with 30 μM compound C25-140 (compound 3) or DMSO. The entire experiment was carried out for 9 days. Every day 500 μl were taken and viable cell number was acquired using the ViCEII cell counter (Beckmann Coulter). At days 4 and 8 of the experiment the volume was again adjusted to 5 ml and samples were supplemented with 30 μM compound C25-140 or DMSO. This process was necessary to ensure linear proliferation of DMSO treated cells. All curves of C25-140 treated samples were referred to the corresponding DMSO treated controls.

[2] = tested on: TCR target genes IL-2 and TNFα in Jurkat T-cells; experiment: mRNA expression (qRT-PCR) in Jurkat T-cells; type: cell-based, human; details: PMA/Ionomycin
Procedure: (§1) For MEF cells, 1.2×10^5 cells per sample were seeded, treated with compound for 6 hours and stimulated with either IL-1β or TNFα for 60 minutes. Jurkat T-cells and primary mouse CD4^+ T-cells were seeded at 2×10^5 cells per sample, also treated with compound for 6 hours and stimulated with PMA/lonomycin for 3 hours. RNA was isolated according to the manufacturer's protocol of the Qiagen RNeasy Kit (MEF cells) or the STRATEC INVITRAP® SPIN UNIVERSAL RNA MINI KIT (Jurkat T-cells). The isolation of mRNA from […] white adipose tissue from DIO mice was performed using TRIzol® Reagent according to manufacturer's instruction. To clear the isolated RNA from genomic DNA, samples (up to 5 μg RNA) were treated with RQ1 RNase-Free DNaseI (Promega) as described in the technical manual. For the reverse transcription of RNA into cDNA, the DNaseI digested RNA samples were processed using the SuperScript III First Strand cDNA Synthesis System (Invitrogen/ThermoFisher Scientific) following the manufacturer's protocol. […] For quantification of cDNA in the samples, the LightCylcer480 (Roche) and the KAPA SYBR FAST qPCR Kit were used. For relative quantification, the ΔΔCp method first described by Pfaffl (Pfaffl, M. W., A new mathematical model for relative quantification in real-time RT-PCR. Nucleic Acids Res, 2001. 29(9): p. e45) was applied.

[3] = tested on: primary murine CD4+ T-cells; experiment: Primary mouse CD4+ T-cells, CD3/CD28 stimulation (qRT-PCR, ELISA); type: cell-based; details: primary naive CD4+ T-cells
Procedure: as §1, with “Jurkat T-cells and primary mouse CD4^+ T-cells were seeded at 2×10^5 cells per sample, also treated with compound for 6 hours and stimulated with PMA/lonomycin for 3 hours.” left out, “manual.” for “manual. For the reverse transcription of RNA into cDNA, the DNaseI digested RNA samples were processed using the SuperScript III First Strand cDNA Synthesis System (Invitrogen/ThermoFisher Scientific) following the manufacturer's protocol.”, “applied. […]” for “applied.”
For measurement of cytokine secretion, 2×10^5 Jurkat T-cells or primary CD4^+ T-cells or human PBMCs per sample were seeded, treated with compound for 6 hours and stimulated as indicated. 20 hours after stimulation, supernatants were harvested and analyzed with the IL-2, IL-1β and TNFα Ready-Set-Go! […]

[4] = tested on: 24 different Ubiquitin reaction cascades (E2, E3 and substrate combinations); experiment: Ubiquitin Profiler (Eurofins), single point; type: biochemical; details: 30 μM, 24 reactions
Procedure: C25-140 was sent to Eurofins Pharma Discovery Services UK to perform a Single Point Ubiquitin Profiler testing of C25-140 effect at a concentration of 30 μM on 24 different Ubiquitin reaction cascades employing distinct combinations of E2, E3 and substrate. Each reaction was measured in duplicates. Cascade activity is expressed as a percentage of the mean cascade activity in the positive control samples. The positive control value is considered to be 100%, and all test samples are referred to this value.

U2OS cells = experiment: Cell cycle assessment (propidium iodide), U2OS cells; type: cell-based; details: 24 hours and 72 hours
Procedure: For cell cycle staining, cells were seeded at 2×10^5 cells per sample and treated with compound or DMSO. After the indicated incubation time (24 or 72 hours), cells were fixed in 100% Ethanol and subsequently stained with the Propidium Iodide staining solution (0.1% Triton X-100; 20 μg/ml Propidium Iodide; 200 μg/ml RNAse A in PBS) for 40 min in the dark. The Propidium Iodide fluorescence was collected using the Attune Flow Cytometer (Thermo Fisher Scientific). Analysis was performed using the Single Cell analysis software FlowJo.

Cc1nn(-c2ccc3nnc(C)n3n2)c(C)c1CCC(=O)N1CCC(Cc2ccccc2)CC1 [Example C25-140, 1-(4-Benzylpiperidin-1-yl)-3-(3,5-dimethyl-1-(3-methyl-[1,2,4]-triazolo-[4,3-b]-pyridazin-6-yl)-1H-pyrazol-4-yl)-propan-1-one]
viability of MYD88 wildtype ABC DLBCL [1]: only slightly affected; also recorded: not affected
mRNA levels of TCR target genes IL-2 and TNFα [2]: reduced; also recorded: dose-dependently decreased
IL-2 mRNA expression [3]: impaired
IL-2 protein secretion [3]: counteracted; also recorded: impaired
Ubiquitin Profiler cascade activity [4]: None of these reactions was inhibited; also recorded: None of the reactions is considerably inhibited
cell cycle progression (U2OS cells): no effects on cell cycle phases; also recorded: not impaired
